One molecule from patent EP4342890A1, “PLATFORM AND SCAFFOLD FOR FAP TARGETING AGENTS” (Erasmus University Rotterdam Medical Center, priority 2022, dated 2024) can be followed below.

Molecules are shown by their SMILES.

The target in one experiment is T1, FAP (Homo sapiens, UniProt Q12884).
T1 sequence (Q12884 1-760): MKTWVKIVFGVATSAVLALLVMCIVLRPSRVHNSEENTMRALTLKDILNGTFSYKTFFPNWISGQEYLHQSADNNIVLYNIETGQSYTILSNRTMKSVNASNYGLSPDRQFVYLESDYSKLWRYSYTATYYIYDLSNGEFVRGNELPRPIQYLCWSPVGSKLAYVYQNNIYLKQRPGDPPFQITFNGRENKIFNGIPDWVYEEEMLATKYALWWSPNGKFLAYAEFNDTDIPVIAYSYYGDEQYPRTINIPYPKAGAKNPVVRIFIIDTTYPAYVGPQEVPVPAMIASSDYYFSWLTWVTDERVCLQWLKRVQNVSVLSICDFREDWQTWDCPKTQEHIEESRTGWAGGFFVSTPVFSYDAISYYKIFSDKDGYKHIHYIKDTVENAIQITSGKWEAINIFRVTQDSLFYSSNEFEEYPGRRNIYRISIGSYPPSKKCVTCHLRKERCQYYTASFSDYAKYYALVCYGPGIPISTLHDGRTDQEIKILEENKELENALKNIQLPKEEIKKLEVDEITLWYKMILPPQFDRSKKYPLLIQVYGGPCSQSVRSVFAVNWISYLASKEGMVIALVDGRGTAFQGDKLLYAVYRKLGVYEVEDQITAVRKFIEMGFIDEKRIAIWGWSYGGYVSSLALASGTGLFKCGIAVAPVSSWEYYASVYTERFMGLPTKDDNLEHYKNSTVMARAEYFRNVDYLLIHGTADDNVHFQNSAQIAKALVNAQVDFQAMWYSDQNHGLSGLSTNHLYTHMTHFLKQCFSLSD
Put plainly: In vitro inhibition assay on human FAP (Z-GP-AMC substrate). In kind it is biochemical. As to conditions: enzymatic assay; 20 µM Z-GP-AMC, 20 nM FAP; unit inferred. The protocol:
(§1) Enzymatic activity of human FAP (hFAP) and mouse FAP (mFAP) on the Z-GP-AMC substrate was measured at room temperature on a Hidex microplate reader by monitoring the fluorescence at an excitation wavelength of 360 nm and an emission wavelength of 465 nm. The reaction mixture contained 20 µM substrate, 20 nM FAP, assay buffer (50 mM Tris, 100 mM NaCl, 1 mM EDTA, pH 7.4) and tested compound (serial dilution from 10^-6 to 10^-12) in a total volume of 50 µL.

In the next experiment the target is T2, murine FAP (Mus musculus, UniProt P97321).
T2 sequence (P97321 1-761): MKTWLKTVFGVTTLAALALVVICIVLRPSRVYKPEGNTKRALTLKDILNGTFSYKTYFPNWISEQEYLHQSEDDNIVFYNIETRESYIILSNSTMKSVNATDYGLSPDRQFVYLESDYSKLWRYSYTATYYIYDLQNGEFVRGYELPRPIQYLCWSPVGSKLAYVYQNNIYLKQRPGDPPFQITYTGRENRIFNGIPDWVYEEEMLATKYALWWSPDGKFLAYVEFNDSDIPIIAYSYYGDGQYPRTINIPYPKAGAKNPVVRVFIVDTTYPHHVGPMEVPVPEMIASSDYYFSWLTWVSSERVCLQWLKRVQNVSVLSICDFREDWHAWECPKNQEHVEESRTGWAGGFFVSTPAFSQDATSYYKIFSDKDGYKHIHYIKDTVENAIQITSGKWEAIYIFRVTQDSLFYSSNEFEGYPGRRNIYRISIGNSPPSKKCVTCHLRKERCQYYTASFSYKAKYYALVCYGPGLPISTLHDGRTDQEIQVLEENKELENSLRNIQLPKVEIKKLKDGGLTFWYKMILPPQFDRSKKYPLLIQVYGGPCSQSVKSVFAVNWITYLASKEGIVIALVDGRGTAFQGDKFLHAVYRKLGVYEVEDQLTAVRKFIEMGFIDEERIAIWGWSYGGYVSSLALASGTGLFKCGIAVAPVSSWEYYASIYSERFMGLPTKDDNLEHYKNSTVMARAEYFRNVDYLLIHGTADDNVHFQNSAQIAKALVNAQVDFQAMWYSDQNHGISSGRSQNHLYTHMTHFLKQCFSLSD
Nature of the experiment: In vitro inhibition assay on mouse FAP (Z-GP-AMC substrate). The experiment is classed as biochemical. The conditions noted are these: enzymatic assay; 20 µM Z-GP-AMC, 20 nM FAP; unit inferred. The protocol: as §1

Turning to `N#C[C@@H]1CC(F)(F)CN1C(=O)CNC(=O)c1ccnc2c(OCCCNC(=O)CN3CCN(CC(=O)O)CCN(CC(=O)O)CCN(CC(=O)O)CC3)cccc12` [eFAP-6, (S)-2,2',2"-(10-(2-((3-((4-((2-(2-Cyano-4,4-difluoropyrrolidin-1-yl)-2-oxoethyl)carbamoyl)quinolin-8-yl)oxy)propyl)amino)-2-oxoethyl)-1,4,7,10-tetraazacyclododecane-1,4,7-triyl)triacetic acid], the IC50 (as a rule, the concentration at which inhibition is half-maximal) came to 1.6 ± 0.5 nM against FAP and 3.1 ± 2.4 nM against murine FAP.
